Reference: patent US11596639B2, “Substituted indole Mcl-1 inhibitors” (Vanderbilt University, priority 2016, dated 2023)
Where two headings read alike, the source gives them in different places.

Assays:
[1] = system: H929 human cancer cell lines; test: Cellular viability / proliferation (Cell TiterGlo, 72 h); type: cell-based
Procedure: Cellular Viability of Human Tumor Cell Lines
To evaluate compound effect on cellular proliferation, cells were plated at 1,000 cells/well in 96-well tissue culture plates in a total volume of 90 μL medium supplemented with 10% FBS (Sigma, Saint Louis, Mo.). 24 hours later, 10 μL of compound (in a 2-fold serial dilution) is added to the cells for a top concentration of 50 μM and a final DMSO concentration <1%. After 72 hours, 50 μL of Cell TiterGlo (Promega, Madison, Wis., USA) reagent is added to each well and plates are incubated at room temperature, in the dark, for 30 minutes. Luminescence is measured on a BioTek Cytation 3. Luminescence values are imported into a template in XLFit (Guildford, Surrey, UK) that uses a four-parameter fit to generate an IC50 value for each compound dilution series on the plate.

[2] = target: Mcl-1 (Homo sapiens (Human), UniProt Q07820); test: Fluorescence polarization anisotropy (FPA) competition assay, FITC-Bak or FITC-Bim BH3 peptide; type: binding; details: read-out: Ki for Inhibition of Mcl-1 by FPA assay
Mcl-1, sequence (Q07820 172-327): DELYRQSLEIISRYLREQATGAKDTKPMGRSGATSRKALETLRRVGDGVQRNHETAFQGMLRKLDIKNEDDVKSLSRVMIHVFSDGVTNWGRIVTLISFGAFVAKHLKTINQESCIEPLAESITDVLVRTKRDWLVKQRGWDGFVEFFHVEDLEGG

[3] = Homo sapiens, NCI-H929, 72 h, read-out: GI50 on cellular proliferation of H929 human cancer cell lines, H929 cells, 72 h, Cell TiterGlo, 10% FBS

| SMILES | GI50 ([1]; H929 cells, 72 h, Cell TiterGlo, 10% FBS, read-out: GI50 on cellular proliferation of H929 human cancer cell lines) | Ki [2] | GI50 ([1]; read-out: GI50 on cellular proliferation of H929 human cancer cell lines, H929 cells, 72 h, Cell TiterGlo, 10% FBS) | GI50 [1, 3] |
| --- | --- | --- | --- | --- |
| Cc1cc(OCCCc2c3n(c4c(-c5c(C)nn(C)c5C)c(Cl)ccc24)[C@H](C)CN(c2cc(OCc4ccccc4)cc4cc(C(=O)O)n(C)c24)C3=O)cc(C)c1Cl [Example 333, (M, R)-5-(Benzyloxy)-7-(7-chlor-10-(3-(4-chloro-3,5-dimethylphenoxy)propyl)-4 methyl-1-oxo-6-(1,3,5-trimethyl-1H-pyrazol-4-yl)-3,4-dihydropyrazino[1,2-a]indol-2(1H)-yl)-1-methyl-1H-indole-2-carboxylic acid] | 1100 nM | 1.3 nM | – | – |
| Cc1cc(OCCCc2c3n(c4c(-c5c(C)nn(C)c5C)c(Cl)ccc24)[C@H](C)CN(c2cccc4c(C(=O)O)cn(C)c24)C3=O)cc(C)c1Cl [Example 214, (R)-7-(7-chloro-10-(3-(4-chloro-3,5-dimethylphenoxy)propyl)-4-methyl-1-oxo-6-(1,3,5-trimethyl-1H-pyrazol-4-yl)-3,4-dihydropyrazino[1,2-a]indol-2(1H)-yl)-1-methyl-1H-indole-3-carboxylic acid] | – | < 1 nM | 380 nM | – |
| Cc1cc(OCCCc2c3n(c4c(-c5c(C)nn(C)c5C)c(Cl)ccc24)[C@H](C)CN(c2cccc4cc(C(=O)O)n(C)c24)C3=O)cc(C)c1Cl [Example 178, (R)-7-(7-Chloro-10-(3-(4-chloro-3,5-dimethylphenoxy)propyl)-4-methyl-1-oxo-6-(1,3,5-trimethyl-1H-pyrazol-4-yl)-3,4-dihydropyrazino[1,2-a]indol-2(1H)-yl)-1-methyl-1H-indole-2-carboxylic acid] | – | < 1 nM | – | < 200 nM |
| Cc1cc(OCCCc2c3n(c4c(-c5c(C)ncnc5C)c(Cl)ccc24)[C@H](C)CN(c2cccc4cc(C(=O)O)cnc24)C3=O)cc(C)c1Cl [Example 227, 8-[(4R)-7-chloro-10-[3-(4-chloro-3,5-dimethyl-phenoxy)propyl]-6-(4,6-dimethylpyrimidin-5-yl)-4-methyl-1-oxo-3,4-dihydropyrazino[1,2-a]indol-2-yl]quinoline-3-carboxylic acid] | – | < 1 nM | – | 1300 nM |
| CC[C@@H]1Cn2c(c(CCCOc3cc(C)c(Cl)c(C)c3)c3ccc(Cl)c(-c4c(C)nn(C)c4C)c32)C(=O)N1c1ccc(C(=O)O)c2ncccc12 [Example 19, (R)-5-(7-chloro-10-(3-(4-chloro-3,5-dimethylphenoxy)propyl)-3-ethyl-1-oxo-6-(1,3,5-trimethyl-1H-pyrazol-4-yl)-3,4-dihydropyrazino[1,2-a]indol-2(1H)-yl)quinoline-8-carboxylic acid] | – | 1.9 nM | – | 4100 nM |
| Cc1cc(OCCCc2c3n(c4c(-c5c(C)nn(C)c5C)c(Cl)ccc24)[C@H](C)CN(c2nccc4cc(C(=O)O)ccc24)C3=O)cc(C)c1Cl [Example 264, 1-[(4R)-7-chloro-10-[3-(4-chloro-3,5-dimethyl-phenoxy)propyl]-4-methyl-1-oxo-6-(1,3,5-trimethylpyrazol-4-yl)-3,4-dihydropyrazino[1,2-a]indol-2-yl]isoquinoline-6-carboxylic acid] | – | < 1 nM | – | 560 nM |
| Cc1cc(N2CCCn3c(c(CCCOc4cc(C)c(Cl)c(C)c4)c4ccc(Cl)c(-c5c(C)ncnc5C)c43)C2=O)c2c(c1)cc(C(=O)O)n2C [Example 399, 7-(8-Chloro-11-(3-(4-chloro-3,5-dimethylphenoxy)propyl)-7-(4,6-dimethylpyrimidin-5-yl)-1-oxo-4,5-dihydro-1H-[1,4]diazepino[1,2-a]indol-2(3H)-yl)-1,5-dimethyl-1H-indole-2-carboxylic acid] | – | 2.4 nM | – | 210 nM |
| Cc1cc(OCCCc2c3n(c4c(-c5c(C)ncnc5C)c(Cl)ccc24)CCCN(c2cccc4cc(C(=O)O)n(Cc5ccccn5)c24)C3=O)cc(C)c1Cl [Example 279, 7-(8-Chloro-11-(3-(4-chloro-3,5-dimethylphenoxy)propyl)-7-(4,6-dimethylpyrimidin-5-yl)-1-oxo-4,5-dihydro-1H-[1,4]diazepino[1,2-a]indol-2(3H)-yl)-1-(pyridin-2-ylmethyl)-1H-indole-2-carboxylic acid] | – | 1 nM | – | 3300 nM |
